Experimental findings from ChEMBL document CHEMBL1201862, “PubChem BioAssay data set” (2004) are described below.

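These data come from cells grown in 96-well plates and exposed to compound for 48 hours at five concentrations. GI50 = concentration required for 50% inhibition of growth.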 Calls of active or inactive are those of the source. Cut-off read from the data, not from the text of the source: active = GI50 up to about 1.1 µM and inactive = higher.

Test systems include 786-0; A549; ACHN; DU-145; HCT-116; HOP-92; HT-29; Hs-578T; IGROV-1; K562; MCF7; MDA-MB-231; NCI-H23; NCI-H460; NCI-H522; PC-3; RXF 393; SF-295; SN12C; TK-10.
What all share (test): NCI anticancer screen, dose series, 48 h

Consider `COc1ccc(CN(CCc2c[nH]c3ccccc23)Cc2ccc(OC)cc2)cc1`, for which the GI50 is 3.08 µM (inactive) in the test on 786-0; 3.63 µM (inactive) in the test with A549; 3.37 µM (inactive) with ACHN; 4.65 µM (inactive) in the test on DU-145; 0.83 µM (active) in the test with HCT-116; 3.29 µM (inactive) in the test with HOP-92. Besides, the GI50 in the test with HT-29 is 1.29 µM (inactive); in the test on Hs-578T it was 16.7 µM (inactive); in the test on IGROV-1, 1.8 µM (inactive); in the test on K562 it was 4.75 µM (inactive); with MCF7, 3.47 µM (inactive); with MDA-MB-231, 8.65 µM (inactive). Besides, the GI50 in the test with NCI-H23 was 2.31 µM (inactive); in the test on NCI-H460, 2.15 µM (inactive); with NCI-H522, 2.88 µM (inactive); with PC-3 it was 3.66 µM (inactive); in the test with RXF 393, 4.69 µM (inactive); in the test with SF-295 it was 1.15 µM (inactive). Besides, the GI50 in the test with SN12C is 0.968 µM (active); with TK-10, 1.29 µM (inactive).
On to `O=C(CCN1CCCCC1)N1CCc2c([nH]c3ccccc23)C1c1cccnc1` (stereo not drawn), for which the GI50 in the test with 786-0 is 38.6 µM (inactive); in the test on A549, > 93.3 µM (inactive); in the test on ACHN, > 85.5 µM (inactive); in the test with DU-145, > 100 µM (inactive); in the test on HCT-116, 61.8 µM (inactive); in the test with HOP-92, 29.7 µM (inactive). Further, the GI50 is 32.4 µM (inactive) with HT-29; 66.4 µM (inactive) with Hs-578T; > 92 µM (inactive) in the test with IGROV-1; 30.8 µM (inactive) in the test on K562; 99.3 µM (inactive) in the test on MCF7; 34.1 µM (inactive) in the test on MDA-MB-231. Besides, the GI50 was > 100 µM (inactive) in the test with NCI-H23; 73.1 µM (inactive) in the test with NCI-H460; 35.3 µM (inactive) in the test on NCI-H522; 57 µM (inactive) in the test with PC-3; 28.7 µM (inactive) in the test with RXF 393; 37.5 µM (inactive) in the test on SF-295. The values for the GI50 in the test on SN12C and with TK-10 were > 81.5 µM (inactive) and 68.9 µM (inactive), respectively.
For `COc1cc(O)ccc1C(=S)SC`, the GI50 in the test with 786-0 is > 100 µM (inactive); with A549, 38.8 µM (inactive); in the test on ACHN, 68.2 µM (inactive); in the test with DU-145 it was > 100 µM (inactive); in the test with HCT-116 it was 80.9 µM (inactive); in the test on HOP-92 it was 34.2 µM (inactive). The GI50 with HT-29 is > 100 µM (inactive); in the test on Hs-578T, 24.1 µM (inactive); in the test on IGROV-1, 42.6 µM (inactive); in the test on K562 it was 52.8 µM (inactive); with MCF7, > 100 µM (inactive); in the test on MDA-MB-231, 16.2 µM (inactive). For the same compound, the GI50 in the test with NCI-H23 was 40.6 µM (inactive); with NCI-H460 it was 77.6 µM (inactive); in the test with NCI-H522, 46 µM (inactive); with PC-3, 47.2 µM (inactive); in the test on RXF 393, 89.3 µM (inactive); with SF-295 it was 60.3 µM (inactive). For the same compound, the GI50 is 1.45 µM (inactive) in the test with SN12C and 60.4 µM (inactive) in the test with TK-10.
As for `O=C1/C(=C/C=C/c2ccccc2)N=C(c2ccccc2)N1C1Nc2cc3c(cc2S1)NC(N1C(=O)/C(=C/C=C/c2ccccc2)N=C1c1ccccc1)S3` (stereo not drawn), the GI50 in the test with 786-0 is 45.9 µM (inactive); in the test on ACHN, 41.8 µM (inactive); in the test on DU-145, 38.8 µM (inactive); with HCT-116, 28.1 µM (inactive); in the test with HOP-92, 22.2 µM (inactive); in the test on HT-29, 23.3 µM (inactive). Further, the GI50 with Hs-578T is 10.5 µM (inactive); with IGROV-1 it was 48 µM (inactive); in the test on K562 it was 0.311 µM (active); with MCF7, 29.9 µM (inactive); in the test on MDA-MB-231, 31.6 µM (inactive); in the test on NCI-H23, 66.5 µM (inactive). Further, the GI50 is 15.8 µM (inactive) in the test on NCI-H460; 10.3 µM (inactive) with NCI-H522; 65.2 µM (inactive) with PC-3; 33.8 µM (inactive) in the test on RXF 393; 67.6 µM (inactive) in the test with SF-295; 86.7 µM (inactive) in the test with TK-10.
As for `CC(=O)SSC1(Cl)C(C)(C)C(Cl)(SSC(C)=O)C1(C)C` (stereo not drawn), the GI50 in the test on 786-0 was 49.2 µM (inactive); with A549 it was 73.6 µM (inactive); with ACHN, 63.4 µM (inactive); in the test with DU-145, 29.6 µM (inactive); with HCT-116, 44 µM (inactive); in the test on HOP-92 it was > 100 µM (inactive). Besides, the GI50 in the test on HT-29 is 49.4 µM (inactive); in the test on Hs-578T, > 100 µM (inactive); in the test with IGROV-1, 51.2 µM (inactive); with MCF7 it was 33.6 µM (inactive); in the test on MDA-MB-231, > 100 µM (inactive); in the test on NCI-H23, 57.1 µM (inactive). Also, the GI50 was 28.5 µM (inactive) with NCI-H460; 38.8 µM (inactive) in the test with NCI-H522; 41.3 µM (inactive) with PC-3; 21 µM (inactive) in the test with RXF 393; 43.5 µM (inactive) in the test on SF-295; 77.8 µM (inactive) with SN12C. Besides, the GI50 in the test with TK-10 was 75.2 µM (inactive).
As to `COCN1C(=O)[C@@H]2CCCN2C(=O)c2cc(Cl)ccc21`, the GI50 with 786-0, with A549, in the test on ACHN, in the test on DU-145, with HCT-116 and in the test on HOP-92 was > 100 µM (inactive) each time. Further, the GI50 with HT-29, in the test on Hs-578T, in the test with IGROV-1, in the test with K562, with MCF7 and in the test on MDA-MB-231 was > 100 µM (inactive) in each case. Moreover, the GI50 in the test on NCI-H23, with NCI-H460, in the test with NCI-H522, in the test with PC-3, in the test with RXF 393 and with SF-295 was > 100 µM (inactive) each time. The GI50 with SN12C and with TK-10 was > 100 µM (inactive) in each case.
With `COC(=O)[C@@H]1OC(C)(c2ccccc2)O[C@H]1C(=O)OC`, the GI50 in the test with 786-0, in the test on A549, in the test with ACHN, with DU-145, in the test on HOP-92 and in the test on HT-29 was > 100 µM (inactive) throughout. Moreover, the GI50 with Hs-578T, in the test with IGROV-1, in the test with K562, with MCF7, with MDA-MB-231 and with NCI-H23 was > 100 µM (inactive) throughout. For the same compound, the GI50 in the test with NCI-H460, in the test with NCI-H522, with PC-3, in the test on RXF 393, with SF-295 and with TK-10 was > 100 µM (inactive) each time.
Regarding `COc1cc2c(cc1[N+](=O)[O-])C(=O)C(Br)(Br)CCC2`, the GI50 was 1.26 µM (inactive) with 786-0; 4.37 µM (inactive) in the test with A549; 2.11 µM (inactive) in the test with ACHN; 7.18 µM (inactive) with DU-145; 0.697 µM (active) in the test on HCT-116; 4.46 µM (inactive) in the test with HOP-92. The GI50 in the test with HT-29 was 4.88 µM (inactive); with Hs-578T it was 5.75 µM (inactive); with IGROV-1, 0.955 µM (active); with K562 it was 1.09 µM (active); in the test with MCF7 it was 2.22 µM (inactive); in the test on MDA-MB-231, 3.05 µM (inactive). The GI50 in the test with NCI-H23 was 2.79 µM (inactive); in the test on NCI-H460, 6.65 µM (inactive); in the test on NCI-H522 it was 0.771 µM (active); in the test with PC-3, 5 µM (inactive); in the test on RXF 393, 1.93 µM (inactive); in the test on SF-295, 6.52 µM (inactive). For the same compound, the GI50 in the test with SN12C is 2.21 µM (inactive); in the test on TK-10, 2.54 µM (inactive).
Take `N/C(=N\c1ccc(Cl)cc1)c1ccccc1N`: the GI50 with 786-0 is > 100 µM (inactive); in the test on A549 it was > 100 µM (inactive); with ACHN it was > 100 µM (inactive); with DU-145, > 100 µM (inactive); in the test with HCT-116, > 100 µM (inactive); in the test on HOP-92 it was 3.82 µM (inactive). Besides, the GI50 in the test with HT-29, with Hs-578T, with IGROV-1, with K562, with MCF7 and in the test on MDA-MB-231 was > 100 µM (inactive) each time. In addition, the GI50 with NCI-H23, in the test with NCI-H460, in the test with NCI-H522, in the test with PC-3, in the test with RXF 393 and in the test on SF-295 was > 100 µM (inactive) in each case. Also, in the test on TK-10, the GI50 is > 100 µM (inactive).
With `COc1cc2c(cc1OC)-c1cc3ccc(OC)c(OC)c3c[n+]1CC2` [PALMATINE CHLORIDE], the GI50 with 786-0, in the test on A549, with ACHN, in the test with DU-145, with HCT-116 and with HOP-92 was > 100 µM (inactive) each time. Further, the GI50 in the test with HT-29 is > 100 µM (inactive); in the test with Hs-578T, > 100 µM (inactive); in the test on IGROV-1, > 100 µM (inactive); in the test on K562, 52.4 µM (inactive); in the test on MCF7 it was > 100 µM (inactive); in the test on MDA-MB-231, > 100 µM (inactive). For the same compound, the GI50 in the test with NCI-H460, in the test on NCI-H522, in the test with PC-3, in the test with RXF 393, in the test with SF-295 and in the test on SN12C was > 100 µM (inactive) in each case. For the same compound, the GI50 in the test with TK-10 is > 100 µM (inactive).
